Values after ≈ are worked out from the molar mass of the structure shown. Where a SMILES comes first, the peptide text is derived from it. [ ]: non-standard residue; d: D form.
How the values were obtained:
M. fortuitum = assay: MIC against M. fortuitum; assay type: cell-based, Mycobacterium fortuitum; conditions: M. fortuitum (ATCC 6841); CAAT media
M. avium = assay: MIC against M. avium; assay type: cell-based, Mycobacterium avium; conditions: M. avium (ATCC 700898); CAAT media
M. kansasii = assay: MIC against M. kansasii; assay type: cell-based, Mycobacterium kansasii; conditions: M. kansasi (ATCC 12478); CAAT media
M. abscessus = assay: MIC against MDR M. abscessus isolates; assay type: cell-based, Mycobacterium abscessus; conditions: 7 days; for MIC: AST media (CAAT)
A. dolens [1] = assay: MIC by broth microdilution against A. dolens; assay type: cell-based, Achromobacter dolens; conditions: A. dolens isolates
Method: (§1) MIC values were determined using a modification of the standard broth microdilution reference method defined by the Clinical and Laboratory Standards Institute (CLSI), CLSL. 2015. Methods for Dilution Antimicrobial Susceptibility Tests for Bacteria That Grow Aerobically; Approved Standard-10th Edition. Clinical and Laboratory Standards Institute, Wayne, PA. The modification was based on the replacement of Mueller Hinton Broth with either CAA media (with and without NaCl) or CAA supplemented with 2.5% human serum. MIC is the minimum concentration of peptide sufficient to suppress at least 80% of the bacterial growth compared to control.
(§2) Based on these nine most prevalent strains, direct lytic agents, including GN370, AM1, AM2, and AM3, were evaluated against various isolates from each of the 9 strains. MICs and MBECs (Example 3) were determined, and a sputum inhibition test was conducted, as described below in Example 5.
(§3) The MICs for were determined as described below using the broth microdilution method for meropenem, GN370, AM1, AM2, and AM3. The results are shown below in Tables 8-12.

B. gladioli [2] = assay: MIC by broth microdilution against B. gladioli; assay type: cell-based, Burkholderia gladioli; conditions: B. gladioli isolates
Method: as §1, §2, §3

P. aeruginosa [3] = assay: Time-kill assay in cystic fibrosis patient sputum, P. aeruginosa; assay type: cell-based, Pseudomonas aeruginosa
Excerpt: (§4) Sputum from 5 cystic fibrosis patients was pooled. The resulting mixture was not filtered, as it was very dense and not amenable to sterilization by filtration. Sputum is known to be a complex mixture of DNA, carbohydrates, and lipids ([…], 2016). As used herein, the term “sputum” refers to the mucus present in the respiratory tract of an animal, such as a human. Sputum may increase in thickness due to the irritation or infection, including bacterial infection, and in some instances, may be expelled by the animal while coughing. In certain instances, cystic fibrosis may be characterized by the presence of a thick, sticky mucus or sputum present in the lungs of cystic fibrosis patients. The activity of GN370, AM1, AM2, AM3, and meropenem was determined in the sputum using a time-kill assay format as disclosed in Zhang et al., Antimicrobial peptide therapeutics for cystic fibrosis, Antimicrobial Agents Chemother. 2005; 49(7):2921-2927. […] Untreated controls were included in addition to pretreatment plating (t=0) for a baseline CFU determination. Activity was also determined in the absence of sputum for comparison to activity observed in the presence of sputum.

S. maltophilia [4] = assay: Time-kill assay in cystic fibrosis patient sputum, S. maltophilia; assay type: cell-based, Stenotrophomonas maltophilia
Excerpt: as §4

P. aeruginosa [5] = assay: Serial passage resistance development study, P. aeruginosa; assay type: cell-based, Pseudomonas aeruginosa; conditions: P. aeruginosa strain CFS 1292, Day 28
S. maltophilia [6] = assay: Serial passage resistance development study, S. maltophilia; assay type: cell-based, Stenotrophomonas maltophilia; conditions: S. maltophilia, day 28, triplicate
A. ruhlandii = assay type: cell-based, Achromobacter ruhlandii
Method: (§5) The MBEC (after 2-hour treatments) was determined as described in Jones and Wozniak, PsI Produced by Mucoid Pseudomonas aeruginosa Contributes to the Establishment of Biofilms and Immune Evasion, Am. Soc. Microbiol. 2017, 8(3):e00864-17. Meropenem and tobramycin were included as controls and were both poorly active, with MBEC90 values of >256 μg/mL (data not shown).

A. dolens [7] = assay type: cell-based, Achromobacter dolens
Method: as §5

B. gladioli [8] = assay type: cell-based, Burkholderia gladioli; conditions: B. gladioli (15); 2-hour treatment
Method: as §5

P. aeruginosa [9] = test system: P. aeruginosa
P. aeruginosa [10] = test system: P. aeruginosa; remark: listed apart in the source

## CC[C@H](C)[C@H](NC(=O)[C@@H](CCCNC(=N)N)NC(=O)[C@H](Cc1ccccc1)NC(=O)CNC(=O)CNC(=O)[C@@H](CCCNC(=N)N)NC(=O)[C@H](CCSC)NC(=O)[C@@H]1CCCN1C(=O)[C@@H](CCCNC(=N)N)NC(=O)[C@H](C)NC(=O)[C@@H](CCCNC(=N)N)NC(=O)[C@H](CC(C)C)NC(=O)[C@H](CC(N)=O)NC(=O)[C@@H](CCCNC(=N)N)NC(=O)[C@@H](CCCCN)NC(=O)[C@@H](CCCCN)NC(=O)[C@@H](NC(=O)[C@H](CC(N)=O)NC(=O)[C@@H](NC(=O)[C@H](C)NC(=O)CNC(=O)[C@@H](CCCNC(=N)N)NC(=O)[C@@H](NC(=O)[C@H](Cc1ccccc1)NC(=O)[C@@H](NC(=O)[C@@H](CCCCN)NC(=O)[C@@H](CCCNC(=N)N)NC(=O)[C@H](CO)NC(=O)[C@@H](CCCCN)NC(=O)[C@@H](CCCCN)NC(=O)[C@@H](CCCCN)NC(=O)[C@H](CO)NC(=O)[C@H](CC(C)C)NC(=O)[C@@H](CCCCN)NC(=O)[C@@H](CCCNC(=N)N)NC(=O)[C@@H](CCCNC(=N)N)NC(=O)[C@@H](CCCCN)NC(=O)[C@@H](N)CCSC)[C@@H](C)CC)[C@@H](C)O)C(C)C)C(C)C)C(=O)O [AM3] (H-M[dK][dR][dR][dK]LS[dK][dK][dK]S[dR][dK]IFT[dR]GAVNV[dK][dK][dR]NL[dR]A[dR]PM[dR]GGF[dR]I-OH; N-terminus and C-terminus assumed)
M. fortuitum
  MIC: 2 µg/mL (≈ 0.438 µM)
M. avium
  MIC: 1 Tg/mL
M. kansasii
  MIC: 1 µg/mL (≈ 0.219 µM)
M. abscessus; 5 clinical MDR strains and 1 ATCC strain, CAAT
  activity (MIC) against M. abscessus: highly active
M. abscessus; M. abscessus strain BK51402
  MIC: 1 µg/mL (≈ 0.219 µM)
M. abscessus; M. abscessus strain BK51403 (ATCC 19977)
  MIC: 4 µg/mL (≈ 0.875 µM)
M. abscessus; M. abscessus strain BK51408
  MIC: 4 µg/mL (≈ 0.875 µM)
M. abscessus; M. abscessus strain BK55096
  MIC: 2 µg/mL (≈ 0.438 µM)
M. abscessus; M. abscessus strain BK55691
  MIC: 1 µg/mL (≈ 0.219 µM)
M. abscessus; M. abscessus strain BK58156
  MIC: 1 µg/mL (≈ 0.219 µM)
A. dolens [1]
  MIC50: 2 µg/mL (≈ 0.438 µM)
  MIC90: 8 µg/mL (≈ 1.75 µM)
A. dolens [1]; in µg/mL
  MIC Range: 0.016-16
B. gladioli [2]
  MIC50: 32 µg/mL (≈ 7 µM)
  MIC90: 128 µg/mL (≈ 28 µM)
P. aeruginosa [3]; 10% CF sputum vs no sputum
  effect of sputum on antibacterial activity: not inhibited
P. aeruginosa [3]; absence of sputum, 1 hr
  Log10 CFU/mL of sputum: 2.3 Log10 CFU/mL of sputum
P. aeruginosa [3]; absence of sputum, 3 hr
  Log10 CFU/mL of sputum: 2.3 Log10 CFU/mL of sputum
P. aeruginosa [3]; absence of sputum, 24 hr
  Log10 CFU/mL of sputum: 2.3 Log10 CFU/mL of sputum
P. aeruginosa [3]; presence of 10% sputum, 1 hr
  Log10 CFU/mL of sputum: 2.3 Log10 CFU/mL of sputum
P. aeruginosa [3]; presence of 10% sputum, 3 hr
  Log10 CFU/mL of sputum: 2.3 Log10 CFU/mL of sputum
P. aeruginosa [3]; presence of 10% sputum, 24 hr
  Log10 CFU/mL of sputum: 2.3 Log10 CFU/mL of sputum
P. aeruginosa [3]; time-kill
  killing by 1 hour, maintained by 24 hours: complete killing
S. maltophilia [4]; 10% CF sputum vs no sputum
  effect of sputum on antibacterial activity: none of GN370, AM1, AM2, and AM3 was inhibited
S. maltophilia [4]; absence of sputum, 1 hr
  Log10 CFU/mL of sputum: 2.3 Log10 CFU/mL of sputum
S. maltophilia [4]; absence of sputum, 3 hr
  Log10 CFU/mL of sputum: 2.3 Log10 CFU/mL of sputum
S. maltophilia [4]; absence of sputum, 24 hr
  Log10 CFU/mL of sputum: 2.3 Log10 CFU/mL of sputum
S. maltophilia [4]; presence of 10% sputum, 1 hr
  Log10 CFU/mL of sputum: 2.3 Log10 CFU/mL of sputum
S. maltophilia [4]; presence of 10% sputum, 3 hr
  Log10 CFU/mL of sputum: 2.3 Log10 CFU/mL of sputum
S. maltophilia [4]; presence of 10% sputum, 24 hr
  Log10 CFU/mL of sputum: 2.3 Log10 CFU/mL of sputum
S. maltophilia [4]; time-kill
  killing by 1 hour, maintained at 24 hours: complete killing
P. aeruginosa [5]
  change in MIC over serial passage: no significant changes
S. maltophilia [6]
  change in MIC over serial passage: no increase in MIC
A. ruhlandii
  MBEC50: 16 µg/mL
  MBEC90: 16 µg/mL
  MBEC Range: 1 to 32 µg/mL
A. dolens [7]
  MBEC50: 2 µg/mL
  MBEC90: 16 µg/mL
  MBEC Range: 1 to 32 µg/mL
B. gladioli [8]
  MBEC50: 4 µg/mL
  MBEC90: 16 µg/mL
P. aeruginosa [9]; P. aeruginosa isolates
  MIC50: 0.06 µg/mL (≈ 0.0131 µM)
  MIC90: 0.25 µg/mL (≈ 0.0547 µM)
P. aeruginosa [9]; P. aeruginosa isolates, in µg/mL
  MIC Range: 0.016-1
P. aeruginosa [9]; P. aeruginosa test organism of the sputum time-kill assay
  MIC: (MIC = 0.125)
P. aeruginosa [9]; all tested isolates, Tables 8-12
  activity (MIC) against P. aeruginosa isolates: highly active
P. aeruginosa [10]
  MBEC50: 0.125 µg/mL
  MBEC90: 1 µg/mL
  MBEC Range: 0.016 to 1 µg/mL
P. aeruginosa [10]; 2-hour treatments
  antibiofilm activity (MBEC) against P. aeruginosa: primarily active

Source: patent US20240181022A1, “AMURINS LYSINS, AND LYSIN-ANTIMICROBIAL PEPTIDE (AMP) CONSTRUCTS ACTIVE AGAINST GRAM-NEGATIVE BACTERIA” (priority 2021, published 2024)
